Laboratory results reported in PubChem BioAssay (NCI).
“And” between values parts separate entries of the source, which are not always exact repeats. Equal values may be shown once.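 Where inhibition never reached the appropriate level, the endpoint shown equals the highest concentration tested. Otherwise, values were interpolated linearly from a five-concentration, 48-hour dose response in 96-well plates. Here, GI50 denotes the concentration required for 50% inhibition of growth. TGI: concentration producing complete growth inhibition.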

Legend:
Assay in all cases: NCI anticancer screen, dose series, 48 h
HCT-15 colon = system: HCT-15 colon
SK-MEL-28 melanoma = system: SK-MEL-28 melanoma
SW-620 colon = system: SW-620 colon
MDA-N = system: MDA-N
PC-3 prostate = system: PC-3 prostate
OVCAR-5 ovarian = system: OVCAR-5 ovarian
LOX IMVI melanoma = system: LOX IMVI melanoma
T-47D breast = system: T-47D breast
NCI-H522 lung = system: NCI-H522 lung
IGROV1 ovarian = system: IGROV1 ovarian
MDA-MB-231 breast = system: MDA-MB-231 breast
MCF7 breast = system: MCF7 breast

| SMILES | TGI (HCT-15 colon) | TGI (SK-MEL-28 melanoma) | TGI (SW-620 colon) | TGI (MDA-N) | TGI (PC-3 prostate) | TGI (OVCAR-5 ovarian) | TGI (LOX IMVI melanoma) | TGI (T-47D breast) | TGI (NCI-H522 lung) | TGI (IGROV1 ovarian) | TGI (MDA-MB-231 breast) | TGI (MCF7 breast) | GI50 (SW-620 colon) | GI50 (MDA-N) | GI50 (LOX IMVI melanoma) | GI50 (MDA-MB-231 breast) | GI50 (MCF7 breast) |
| --- | --- | --- | --- | --- | --- | --- | --- | --- | --- | --- | --- | --- | --- | --- | --- | --- | --- |
| CC1OC(OC2C(O[C@H]3CC[C@@]4(C)C(=CC[C@H]5[C@@H]6C[C@@H]7O[C@]8(CC[C@@H](CO)CO8)[C@@H](C)[C@@H]7[C@@]6(C)CC[C@@H]54)C3)OC(CO)C(O)C2OC2OC(CO)C(O)C(O)C2O)C(O)C(O)C1O (some centres not stated) | 3.94 µM | 3.46 µM | 3.54 µM | 3.06 µM | 3.33 µM | 4.08 µM | 3.39 µM | 4.02 µM | 3.19 µM | 4.05 µM | 3.25 µM | 3.15 µM |  |  |  |  |  |
| Oc1ccc(-c2nc(-c3cccnc3)c(-c3ccc(Cl)cc3)[nH]2)cc1 | 25.2 µM | 32.1 µM | 29.9 µM | 26.3 µM | 19.5 µM | 33.5 µM | 24 µM | 28.6 µM | 23.8 µM | 23 µM | 35.1 µM | 24.7 µM |  |  |  |  |  |
| CSc1ccc2c(cc1=O)[C@@H](NC(=O)c1ccc(N)cc1)CCc1cc(O)c(O)c(O)c1-2 | 26 µM and 42.4 µM | > 100 µM | > 100 µM | > 75 µM and 54.1 µM | > 100 µM | 66.3 µM and > 100 µM | > 75 µM and 22.9 µM | > 100 µM | 42.5 µM and 50.5 µM | > 100 µM | > 75 µM and 79.6 µM | 21.7 µM and > 100 µM | 18.7 µM and 8.21 µM | 23.9 µM and 5.99 µM | 12 µM and 4.07 µM | 47.2 µM and 19.9 µM | 9.14 µM and 3.83 µM |
| CCOC(=O)c1cc(C(O)P2(=O)N(CC(C)(C)C)[C@@H]3CCCC[C@H]3N2CC(C)(C)C)cn1C(=O)OC(C)(C)C (some centres not stated) | 36 µM | 30.3 µM | 32.6 µM | 28 µM | 48.5 µM | 41.6 µM | 31.4 µM | > 100 µM | 31.1 µM | 18.1 µM | 31.4 µM | 51 µM |  |  |  |  |  |
| N=C(N)c1ccc(C(NC(=O)CNS(=O)(=O)c2ccc3ccccc3c2)P(=O)(Oc2ccccc2)Oc2ccccc2)cc1 (configuration not stated) | > 100 µM | > 100 µM | > 100 µM | > 100 µM | > 100 µM | > 100 µM | > 100 µM | > 100 µM | > 100 µM | > 100 µM | > 100 µM | > 100 µM |  |  |  |  |  |
| COc1cc(/C=C2/C[C@H]3[C@@H]4CC=C5C[C@@H](O)CC[C@]5(C)[C@H]4CC[C@]3(C)NC2=O)cc(OC)c1OC | > 59.5 µM | > 100 µM | > 100 µM | > 100 µM | 79.4 µM | > 75.7 µM | > 100 µM | > 100 µM | 21.7 µM | 38.1 µM | > 55.7 µM | > 77.5 µM |  |  |  |  |  |
| Nc1cc2[nH]c(=O)c(=O)[nH]c2cc1N | > 100 µM | > 100 µM | > 100 µM | > 100 µM | > 100 µM | > 100 µM | > 100 µM | > 100 µM | > 100 µM | > 100 µM | > 100 µM | > 100 µM |  |  |  |  |  |
| C(=Nc1ccc(-c2nc3ccccc3[nH]2)cc1)c1cccs1 | > 100 µM | > 100 µM | > 100 µM | > 100 µM | > 100 µM | > 100 µM | > 100 µM | > 100 µM | > 100 µM | > 100 µM | > 100 µM | > 100 µM |  |  |  |  |  |
| C[N+](C)(C)CC1CCCCCCCCCCC1=O (configuration not stated) | > 100 µM | > 100 µM | > 100 µM | > 100 µM | > 100 µM | > 100 µM | > 100 µM | > 100 µM | > 100 µM | > 100 µM | > 100 µM | > 100 µM |  |  |  |  |  |
| Cn1c2c(c3ccccc31)CC1c3c(c4ccccc4n3C)CC21 (configuration not stated) | > 100 µM | > 100 µM | > 100 µM | > 100 µM | > 100 µM | > 100 µM | > 100 µM | > 100 µM | > 100 µM | > 100 µM | > 100 µM | > 100 µM |  |  |  |  |  |
| Cc1c(S(=O)(=O)/N=C(\NO)Nc2ccc(Cl)c(Cl)c2)sc2ccc(Cl)cc12 | 35.7 µM | 42.5 µM | > 100 µM | 34.8 µM | 36.7 µM | 38.2 µM | 43.3 µM | 36.7 µM | 41.3 µM | 34.5 µM | 55.3 µM | 86.8 µM |  |  |  |  |  |
